Results reported in ChEMBL document CHEMBL3227942, “Synthetic studies on beta-lactam antibiotics. Part 101. Synthesis of 7beta-[2-carboxy-2-(4-hydroxyphenyl)acetamido]-7alpha-methoxy-3-[[(1-methyl-1H-tetrazol-5-yl)thio]-methyl]-1-oxa-1-dethia-3-cephem-4-carboxylic acid disodium salt (6059-S) and its related 1-oxacephems” (1979).
≈ marks a conversion by molar mass, not a printed value.

Assays:
Assay type in all cases: functional
[1] = test system: Staphylococcus aureus; assay: Antibacterial activity against Staphylococcus aureus 209P JC-1
[2] = test system: Staphylococcus aureus; assay: Antibacterial activity against beta-lactamase producing Staphylococcus aureus C-14
[3] = test system: Streptococcus pneumoniae; assay: Antibacterial activity against Streptococcus pneumoniae I
[4] = test system: Escherichia coli; assay: Antibacterial activity against Escherichia coli NIHJ JC-2
[5] = test system: Klebsiella pneumoniae; assay: Antibacterial activity against Klebsiella pneumoniae
[6] = test system: Klebsiella pneumoniae; assay: Antibacterial activity against beta-lactamase producing Klebsiella pneumoniae 363
[7] = test system: Proteus mirabilis; assay: Antibacterial activity against Proteus mirabilis PR-4
[8] = test system: Proteus vulgaris; assay: Antibacterial activity against Proteus vulgaris CN-329
[9] = test system: Enterobacter cloacae; assay: Antibacterial activity against Enterobacter cloacae 233
[10] = test system: Serratia marcescens; assay: Antibacterial activity against Serratia marcescens ATCC 13880
[11] = test system: Pseudomonas aeruginosa; assay: Antibacterial activity against Pseudomonas aeruginosa 24

Row | Compound | MIC [1] [µg/mL] | MIC [2] [µg/mL] | MIC [3] [µg/mL] | MIC [4] [µg/mL] | MIC [5] [µg/mL] | MIC [6] [µg/mL] | MIC [7] [µg/mL] | MIC [8] [µg/mL] | MIC [9] [µg/mL] | MIC [10] [µg/mL] | MIC [11] [µg/mL]
1 | CO[C@@]1(NC(=O)C(C(=O)[O-])c2ccc(O)cc2)C(=O)N2C(C(=O)[O-])=C(CSc3nnnn3C)CO[C@@H]21.[Na+].[Na+] (some centres not stated) [MOXALACTAM DISODIUM] | 6.3 | 6.3 | 3.1 | 0.1 | 0.1 | 0.05 | 0.1 | 0.1 | 0.2 | 0.4 | 25
2 | CC(=O)OCC1=C(C(=O)O)N2C(=O)[C@@H](NC(=O)Cc3cccs3)[C@H]2OC1 | 0.013 (≈ 0.0342 µM) | 0.1 (≈ 0.263 µM) | 0.025 (≈ 0.0657 µM) | 0.8 (≈ 2.1 µM) | 0.2 (≈ 0.526 µM) | > 100 | 0.4 (≈ 1.05 µM) | 50 (≈ 131 µM) | 100 (≈ 263 µM) | > 100 | > 100
3 | CO[C@]1(NC(=O)[C@H](OC=O)c2ccccc2)C(=O)N2C(C(=O)O)=C(CSc3nnnn3C)CS[C@@H]21 | 0.8 (≈ 1.54 µM) | 3.1 (≈ 5.96 µM) | 1.6 (≈ 3.07 µM) | 1.6 (≈ 3.07 µM) | 0.8 (≈ 1.54 µM) | 0.8 (≈ 1.54 µM) | 1.6 (≈ 3.07 µM) | 0.8 (≈ 1.54 µM) | 12.5 (≈ 24 µM) | 12.5 (≈ 24 µM) | > 100
4 | Cn1nnnc1SCC1=C(C(=O)O)N2C(=O)[C@@H](NC(=O)[C@H](O)c3ccccc3)[C@H]2OC1 | 0.025 (≈ 0.056 µM) | 0.4 (≈ 0.896 µM) | 0.025 (≈ 0.056 µM) | 0.05 (≈ 0.112 µM) | 0.05 (≈ 0.112 µM) | 100 (≈ 224 µM) | 0.1 (≈ 0.224 µM) | 0.1 (≈ 0.224 µM) | 0.4 (≈ 0.896 µM) | 6.3 (≈ 14.1 µM) | > 100
5 | CO[C@@]1(NC(=O)[C@H](OC=O)c2ccccc2)C(=O)N2C(C(=O)O)=C(CSc3nnnn3C)CO[C@@H]21 | 0.4 (≈ 0.793 µM) | 0.4 (≈ 0.793 µM) | 0.2 (≈ 0.396 µM) | 0.05 (≈ 0.0991 µM) | 0.1 (≈ 0.198 µM) | 0.1 (≈ 0.198 µM) | 0.2 (≈ 0.396 µM) | 0.2 (≈ 0.396 µM) | 3.1 (≈ 6.14 µM) | 3.1 (≈ 6.14 µM) | > 100
6 | Cn1nnnc1SCC1=C(C(=O)O)N2C(=O)[C@@H](NC(=O)[C@H](O)c3ccccc3)[C@H]2SC1 [CEFAMANDOLE] | 0.1 (≈ 0.216 µM) | 0.4 (≈ 0.865 µM) | 0.1 (≈ 0.216 µM) | 0.4 (≈ 0.865 µM) | 0.4 (≈ 0.865 µM) | > 100 | 0.8 (≈ 1.73 µM) | 0.8 (≈ 1.73 µM) | 3.1 (≈ 6.7 µM) | 50 (≈ 108 µM) | > 100
7 | CC(=O)OCC1=C(C(=O)O)N2C(=O)[C@@H](NC(=O)Cc3cccs3)[C@H]2SC1 [CEPHALOTHIN] | 0.05 (≈ 0.126 µM) | 0.2 (≈ 0.504 µM) | 0.1 (≈ 0.252 µM) | 6.3 (≈ 15.9 µM) | 0.8 (≈ 2.02 µM) | > 100 | 3.1 (≈ 7.82 µM) | 50 (≈ 126 µM) | > 100 | > 100 | > 100
